Assay results reported in patent publication US20150246908A1, “KLF5 MODULATORS” (The Scripps Research Institute, priority 2012, published 2015).
≈ marks a conversion by molar mass, not a printed value. Entries after “also recorded” stand apart in the source; their conditions may differ. Like-named read-outs stand apart in the source and are kept apart here.

Key:
KLF5 protein = KLF5 protein levels by Western blot in colon cancer cell lines; format: cell-based
From the text: The chemical structure of this compound is described using Formula (I) in which R^1=(E)-2-(3-chlorophenyl)ethenyl, R^2═H, R^3=4-tetrahydro-2H-thiopyran 1,1-dioxide, R^4=Me, X═NH, Y=absent).

human KLF5 promoter = test: KLF5 promoter luciferase assay in DLD-1/pGL4.18KLF5p cell line; format: cell-based; settings: measuring luciferase activity
DLD-1 cell line = test: DLD-1 cell viability; format: cell-based; settings: for EC50: cell viability, footnote calls it IC50 cell viability
HT29 (colon) = test: Tumor cell line potency, HT29; format: cell-based
SW-620 (colon) = test: Tumor cell line potency, SW-620; format: cell-based
HCT-116 (colon) = test: Tumor cell line potency, HCT-116; format: cell-based
[1] = test system: colon cancer cell line KM12; test: NCI60 cytotoxicity, KM12; format: cell-based; settings: KM12, high KLF5 mRNA level
From the text: (§1) Moreover, cytotoxicity in general trends with KLF5 levels in the tumor types. […] Only the colon cancer cell line KM12, the ovarian cancer line IGROV1, and the non-small cell lung cancer line NCI-H322M are the NCI60 cell lines high with respect to KLF5 mRNA levels that are ML264-insensitive.

[2] = test system: ovarian cancer line IGROV1; test: NCI60 cytotoxicity, IGROV1; format: cell-based; settings: IGROV1, high KLF5 mRNA level
From the text: as §1

[3] = test system: non-small cell lung cancer line NCI-H322M; test: NCI60 cytotoxicity, NCI-H322M; format: cell-based; settings: high KLF5 mRNA level
From the text: as §1

47 kinases = test: Off-target activity vs. 47 kinases; format: biochemical
[4] = test system: 67 protein targets of therapeutic and/or toxicological interest (GPCRs, ion channels, enzymes, etc.); test: Off-target activity vs. 67 protein targets
[5] = Solubility measured at Scripps; format: physicochemical; settings: aqueous buffer
Stability in PBS = format: physicochemical; settings: read-out: Stability (t1/2) in PBS
[6] = Michael acceptor test, incubation with GSH, LCMS; format: physicochemical; settings: by LCMS after incubation with 100 μM GSH
[7] = Homo sapiens, DLD-1, DlD-1 4.9 cell line

SMILES	IC50 (human KLF5 promoter; [7]) [µM]	further results
CN(C(=O)COC(=O)/C=C/c1cccc([N+](=O)[O-])c1)C1CCS(=O)(=O)C1 (stereo not shown) [CID 5951923]	–	effect on KLF5 protein levels (KLF5 protein): lesser effects on KLF5 expression than ML264
CN(C(=O)CNC(=O)/C=C/c1cccc([N+](=O)[O-])c1)C1CCS(=O)(=O)C1 (stereo not shown) [CID46931037]	–	effect on KLF5 protein levels (KLF5 protein): lesser effects on KLF5 expression than ML264
CN(C(=O)CNC(=O)/C=C/c1cccc(S(=O)(=O)N(C)C)c1)C1CCS(=O)(=O)C1 (stereo not shown) [Compound 25]	> 100	–
O=C(/C=C/c1cccc(Cl)c1)NCC(=O)N(C1CC1)C1CCS(=O)(=O)CC1 [Compound 52]	–	IC50 (human KLF5 promoter; DlD-1 4.9 cell line): > 100 µM
CN(C(=O)CNC(=O)Cc1ccc2c(c1)OCO2)C1CCS(=O)(=O)CC1 [Compound 40]	> 100	–
C[C@@H](NC(=O)/C=C/c1cccc(Cl)c1)C(=O)N(C)C1CCS(=O)(=O)C1 (stereo partly shown) [Compound 30]	> 100	–
C[C@@H](NC(=O)/C=C/c1cccc(Cl)c1)C(=O)NC1CCS(=O)(=O)C1 (stereo partly shown) [Compound 27]	> 100	–
CN(C(=O)CNC(=O)Nc1ccc(Br)cc1Br)C1CCS(=O)(=O)CC1 [Compound 36]	> 100	–
O=C(/C=C/c1cccc(Cl)c1)NCC(=O)NC1CCS(=O)(=O)CC1 [Compound 26]	> 100	–
C[C@@H](NC(=O)/C=C/c1cccc(Cl)c1)C(=O)N(C)C1CCS(=O)(=O)CC1 [Compound 24]	> 100	–
O=C(/C=C/c1cccc(Cl)c1)NCC(=O)N(C1CC1)C1CCS(=O)(=O)CC1 [Compound 54]	–	IC50 (human KLF5 promoter; DlD-1 4.9 cell line): 7.8 µM; EC50 (DLD-1 cell line; Homo sapiens): 0.39 µM
CN(C(=O)CNC(=O)/C=C/c1cccc(Cl)c1)C1CCS(=O)(=O)CC1 [Compound 1, (E)-3-(3-chlorophenyl)-N-(2-((1,1-dioxidotetrahydro-2H-thiopyran-4-yl)(methyl)amino)-2-oxoethyl)acrylamide]	–	maximal effect on DLD-1 viability (DLD-1 cell line): > 90%; IC50 (DLD-1 cell line; Homo sapiens, DLD1 (colon), viability): 0.029 µM; EC50 (DLD-1 cell line; Homo sapiens): 0.022 µM; effect on cell type (HT29 (colon); HT29, submicromolar doses): significant effects at submicromolar doses; IC50 (HT29 (colon); Homo sapiens, HT-29, HT29 (colon)): 0.13 µM; IC50 (SW-620 (colon); Homo sapiens, SW-620 (colon)): 0.43 µM; effect on cell type (SW-620 (colon); SW620, submicromolar doses): significant effects at submicromolar doses; effect on cell type (HCT-116 (colon); HCT116, submicromolar doses): significant effects at submicromolar doses; IC50 (HCT-116 (colon); Homo sapiens, HCT-116 (colon)): 0.56 µM; sensitivity to cytotoxicity [1]: ML264-insensitive; sensitivity to cytotoxicity [2]: ML264-insensitive; sensitivity to cytotoxicity [3]: ML264-insensitive; off-target activity vs. 47 kinases (47 kinases): inactive; inhibition at 10 μM vs. 67 protein targets [4]: < 50%; effect on KLF5 protein levels (KLF5 protein; listed as ML264): significantly reduces KLF5 protein levels; also recorded: lowers KLF5 protein levels; solubility ([5]; PBS, read-out: Solubility in PBS): 18.7 µM (≈ 7.2 µg/mL); solubility ([5]; assay buffer, read-out: Solubility in assay buffer): 35 µM (≈ 13.5 µg/mL); half-life (Stability in PBS): > 48 h; Michael acceptor [6]: Michael acceptor: No
CN(C(=O)CCNC(=O)/C=C/c1cccc(Cl)c1)C1CCS(=O)(=O)C1 (stereo not shown) [Compound 29]	> 100	–
CN(C(=O)COC(=O)/C=C/c1cccc([N+](=O)[O-])c1)C1CCS(=O)(=O)C1 (stereo not shown) [Compound 53C, reference compound]	0.27	EC50 (DLD-1 cell line; Homo sapiens): 1.51 µM
O=C(/C=C/c1cccc(Cl)c1)NCCC(=O)NC1CCS(=O)(=O)C1 (stereo not shown) [Compound 28]	> 100	–
C[C@@H](NC(=O)/C=C/c1cccc(Cl)c1)C(=O)NC1CCS(=O)(=O)CC1 [Compound 31]	> 100	–

More lines, main results first:

IC50 (human KLF5 promoter; [7]) [µM]	SMILES	further results
> 100	COc1cccc(CNC(=O)NCC(=O)N(C)C2CCS(=O)(=O)CC2)c1 [Compound 50]	–
> 100	CN(C(=O)CNC(=O)c1ccc2ccccc2n1)C1CCS(=O)(=O)CC1 [Compound 39]	–
> 100	CN(C(=O)CNC(=O)c1ccc2cc[nH]c2c1)C1CCS(=O)(=O)CC1 [Compound 46]	–
> 100	CN(C(=O)CNC(=O)c1cc2ccccc2o1)C1CCS(=O)(=O)CC1 [Compound 38]	–
> 100	CN(C(=O)CNC(=O)c1cc2cc(Cl)ccc2[nH]1)C1CCS(=O)(=O)CC1 [Compound 33]	–
> 100	CN(C(=O)CNC(=O)c1cccc2c1OCCO2)C1CCS(=O)(=O)CC1 [Compound 32]	–
> 100	CN(C(=O)CNC(=O)c1ccc2ncsc2c1)C1CCS(=O)(=O)CC1 [Compound 47]	–
> 100	CN(C(=O)CNC(=O)C1CCc2ccccc2O1)C1CCS(=O)(=O)CC1 (stereo not shown) [Compound 44]	–
> 100	CN(C(=O)CNC(=O)c1coc2ccccc2c1=O)C1CCS(=O)(=O)CC1 [Compound 45]	–
> 100	COc1ccc(CC(=O)NCC(=O)N(C)C2CCS(=O)(=O)CC2)cc1 [Compound 43]	–
> 100	CN(C(=O)CNC(=O)c1ccsc1)C1CCS(=O)(=O)CC1 [Compound 49]	–
> 100	Cc1ccc(C2(C(=O)NCC(=O)N(C)C3CCS(=O)(=O)CC3)CC2)cc1 [Compound 34]	–
> 100	CN(C(=O)CNC(=O)c1cnc2ccc(Cl)cc2c1)C1CCS(=O)(=O)CC1 [Compound 48]	–
> 100	CN(C(=O)CNC(=O)c1ccnn1-c1ccccc1)C1CCS(=O)(=O)CC1 [Compound 41]	–
> 100	CN(C(=O)CNS(=O)(=O)c1cccc2ccccc12)C1CCS(=O)(=O)CC1 [Compound 35]	–
> 100	CN(C(=O)CNC(=O)COCc1ccccc1)C1CCS(=O)(=O)CC1 [Compound 42]	–
